Molecules are shown by their SMILES.

In the case of `CC(=O)SCCC(=O)N1[C@@H](c2ccccc2O)SC[C@H]1C(=O)N(c1ccccc1)[C@@H](C)C(=O)OC(C)(C)C`, the melting point – broadly, the temperature, or range, at which the solid turns liquid – is 140 to 142 °C.
For `Cc1cccc2c(-c3ccccc3)c([N+](=O)[O-])oc12` the value was 122 to 127 °C; for `Clc1ccc2c(c1)C=C(n1ccnc1)CO2`, 118 to 120 °C.
For `CC(C)(N)CNC(=O)CNC(=O)CNC(=O)Cc1ccccc1` the value was 209 to 210 °C; for `COC(=O)c1ccc2c(c1)CCC(C(N)=O)C2` (configuration not stated), 162 to 164 °C; for `CC(=O)c1cc2cc(C(C)(C)C)ccc2o1`, 99 to 101 °C.
To `Cc1cccc(/C=C/c2nc(COc3ccc(CCCCn4ccnc4CC(O)CO)cc3)co2)c1` (configuration not stated) belongs 102 to 104 °C; to `CN1CCN(c2cccc3ccc(NC(=O)OCc4ccccc4)cc23)CC1`, 143 to 144 °C.
As to `Cc1ccc(-c2ccc3c(c2)C=C(C(=O)Nc2ccc(-c4ccccn4)cc2)CCO3)cc1`, the melting point was 228 to 229 °C.
For `Cc1ccc2cccc(OCc3c(Cl)ccc(OCCN)c3Cl)c2n1` the value was 123 to 125 °C; for `Nc1nc(NCCOc2ccccc2)nc(-c2cc(Cl)ccc2Cl)n1`, 172 to 173 °C; for `Cc1ccc(NC(=O)c2ccccc2N)cc1C(F)(F)F`, 138 to 140 °C.
To `c1cnc(NCCCNCC2CCc3ccc4c(c3O2)CCCC4)nc1` (configuration not stated) belongs 57.6 °C; to `COC(=O)C(=O)c1ccc(OC/C=C/c2ccc3ccccc3c2)cc1`, 100 to 102 °C; to `CCc1nc2nc3cc(Cl)ccc3nc2n1C(=O)c1ccccc1Br`, 130 to 132 °C.
For `Cc1cc(-n2ccnc2)c2cccc(OCc3c(Cl)ccc(S(=O)(=O)N4CCC[C@H]4C(=O)N4CCN(Cc5ccncc5)CC4)c3Cl)c2n1` the value was 108 °C; for `CC(C)(C)C(=O)Oc1nc(-c2ccccc2)sc1-c1ccccc1`, 134 to 136 °C; for `COc1ccc(C(=O)Nc2ccccc2)c2c1oc1ccc(NC(C)=O)cc12`, 252 °C.
`COc1ccc(C(=O)c2cc(-c3cccnc3)c(N3CCOCC3)s2)cc1`: the melting point was 149 °C.
The compound `Nc1cc(S(=O)c2ccc(-c3ccccc3)cc2)ccc1Cl` (configuration not stated) had a melting point of 134 to 137 °C.
For `O=C(Nc1ccc2c(c1)C(=O)c1cc(NC(=O)c3ccccc3)ccc1C2=O)c1ccccc1` the value was 224 °C; for `CCOC(=O)c1cccc(-c2nc(-c3ccc(C(C)C)cc3)cs2)c1`, 91 to 92 °C; for `CC(C)(C)OC(=O)CON=C(c1ccccc1)c1cc2ccncc2[nH]1`, 47 to 52 °C.
To `N#Cc1cnc2cc3ccccc3cc2c1Nc1ccc(Oc2ccccc2)cc1` belongs 250 to 251 °C; to `CC(=O)Nc1ccc(-c2ccc(C(C)O)o2)cc1` (configuration not stated), 175 to 177 °C; to `O=C(OCc1ccccc1O)c1cc(O)c2c(c1)C(=O)c1cccc(O)c1C2=O`, 125 to 130 °C.
For `COC(=O)[C@H](Cc1c[nH]c2ccccc12)NC(=O)CCC(=O)[C@H](Cc1ccccc1)NC(=O)OC(C)(C)C` the value was 54 to 57 °C; for `CC(C)(C)NCC(O)c1cc(F)c(N)cc1F` (configuration not stated), 115 to 116 °C; for `N#Cc1ccc([C@@H]2[C@@H]3C(=O)N(Cc4ccccc4)C(=O)[C@@H]3[C@H]3CCCN32)cc1` (racemic), 191 to 193 °C.
Turning to `Cc1c(NCc2ccccc2)cc2c(c1C)OCC2c1ccc(C(C)C)cc1` (configuration not stated), the melting point was 108 to 109 °C.
`N#CNc1cccc2ccccc12` came in with a melting point of 132 to 133 °C.
`CCCCc1nc(S(=O)(=O)c2ccc(OC)cc2)c(C(=O)O)n1Cc1cc2c(cc1Cl)OCO2` gave a melting point of 154 °C.
For `Cc1ccnc(Sc2nc(-c3ccc(Cl)cc3)c(CCC(=O)O)o2)n1` the value was 174 to 175 °C; for `CCCS(=O)(=O)c1ccccc1S(=O)(=O)NC(=O)Nc1nc(Cl)cc(OCC)n1`, 220 to 222 °C; for `CNC(=O)c1ccc(N2CCN(Cc3cc4c(c(C5CC5)c3)OC(C)C(=O)N4)CC2)cc1` (configuration not stated), 256 to 259 °C.
For `COC(=O)c1ccc(CNC(=O)c2[nH]c(-c3cccs3)cc2-c2ccc(F)cc2)nc1` the value was 174 to 176 °C; for `C1=CCC2=C(C1)CCc1ccccc1C2CCN1CCCC1` (configuration not stated), 57 to 58.5 °C; for `O=C(OCCCl)c1cccc(O)c1`, 50 °C.
Regarding `CC(C)CC1(C)C(=O)NCCN1Cc1ccccc1` (configuration not stated), the melting point lay in the range of 158 to 161 °C.
For `COC(=O)CCCc1cc2cc(Cl)ccc2n1S(=O)(=O)c1ccc2c(c1)CCO2` the value was 132 to 137 °C; for `CCN(Cc1ccccc1OCc1ccccc1)c1ccc(C(=O)O)c(F)c1`, 154 °C; for `COCCOc1c(S(C)(=O)=O)ccc(Cl)c1C`, 83 to 85 °C.
For `COC(=O)CCCCCOc1ccc(N=C=O)cc1` the value was 47 to 50 °C; for `CCN(CC)CCc1ccc2[nH]c(C)c(C(=O)O[C@@H](C)c3ccccc3)c2c1`, 95 to 97 °C.
For `COc1ccc(Cl)cc1-n1cncc1-c1ccc(C(F)(F)F)cc1` the value was 158 to 159 °C; for `Cc1ccc(S(=O)(=O)OCC2CCc3sc(C(C)C)nc3C2)cc1` (configuration not stated), 82 to 83 °C; for `COC(=O)NS(=O)(=O)Oc1c(C(C)C)cccc1C(C)C`, 92 to 95 °C.
For the compound `CCNC(=O)C(C)NS(=O)(=O)c1ccc(C)cc1` (racemic), the melting point was in the range of 106 to 107 °C.
To `COC1N=C(c2ccccc2Cl)c2cc(Cl)ccc2-c2c[nH]cc21` (configuration not stated) belongs 215 to 218 °C; to `ClC(Cl)=C1OC(C(Cl)(Cl)Cl)Oc2ccc(-c3nnn[nH]3)cc21` (configuration not stated), 222 °C.
To `O=C1NCc2c(Oc3ccccc3)cccc2N1Cc1ccccc1` belongs 171 to 173 °C.
To `OCCCCOc1ccc2cc(Nc3ccc(O)cc3)ccc2c1` belongs 132 to 135 °C; to `CCCCc1nc2c(N)nc3ccccc3c2s1`, 149 to 151 °C.
The compound `CCOC(=O)c1c(CN2CCOCC2)nc2cc(OC)c(OC)cc2c1-c1ccccc1OC` gave a melting point of 153 to 154 °C.
To `COC(=O)C1CCC2C3CCC4CC(O)CCC4(C)C3C(NC(=O)OCC(Cl)(Cl)Cl)CC12C` (configuration not stated) belongs 140 to 143 °C; to `CC1(C)CC(=O)C2=C(C1)NC(c1cccnc1)=NC2c1ccc(F)cc1Cl` (configuration not stated), 186 to 187 °C; to `CCCN(CCC)CCC1=CC(=O)CCC1`, 95 to 97 °C.
For the compound `COc1ccc(S(=O)(=O)c2ccccn2)cc1`, the melting point was determined as 112 °C.
To `Oc1ccc(Oc2cnc3cc(F)ccc3n2)cc1` belongs 78 to 79 °C; to `CCCCc1nn2cc(CC)nc2n1Cc1ccc(-c2ccccc2-c2nnn[nH]2)cc1`, > 100 °C; to `Cc1cc(C#N)cnc1N`, 198 to 200 °C.
Compound `COC(=O)c1csc(-c2ccc(C#N)cc2)n1` showed a melting point of 107 to 108 °C.
To `CNc1c(F)cc2c(=O)c(C(=O)O)cn(-c3cc(N)c(F)cc3F)c2c1C` belongs 225 to 228 °C.
For `Cc1cc(C)c(C(=O)c2ccccc2)c(OCC2CO2)c1` (configuration not stated) the value was 72 to 74 °C; for `NNC(=S)c1cc(F)c2ncc(C(=O)NCc3ccc(Cl)cc3)c(O)c2c1`, 317 to 319 °C.
For `CN1CCN(c2ccc(Nc3ncc4c(n3)S/C(=C/c3ccc(O)cc3)C(=O)N4)cc2)CC1` the value was 312 to 314 °C; for `Cc1cccc(C)c1NC(=O)NCC1(c2ccccc2)CCCC1`, 201 to 202 °C; for `CN1C(=O)C(C2=COc3cc4ccccc4cc3O2)=C(c2cn(C(=O)OC(C)(C)C)c3ccccc23)C1=O`, 158 °C.
`O=C(OCCN1C(=O)c2ccccc2C1=O)c1cccc2c(=O)c(OCCN3C(=O)c4ccccc4C3=O)c(-c3ccc(OCc4ccc5ccccc5n4)cc3)oc12` registered a melting point of 211 to 212 °C.
For `Cc1ccccc1C1SCCCN1C(=S)Nc1cccc(Cl)c1` (configuration not stated) the value was 134 to 136 °C.
Take `CNC(=O)c1nc(Cl)c(Cl)[nH]1`: the melting point turned out to be 240 °C.
To `O=C(Nc1ccc(C2(O)CCCN(C(=O)OCc3ccccc3)C2)c(F)c1)OCc1ccccc1` (configuration not stated) belongs 137 to 139 °C; to `COC(=O)C1=C(C)Nc2[nH]nc(-c3ccccc3)c2C1c1cccc([N+](=O)[O-])c1` (configuration not stated), 240 to 241 °C.
Regarding `O=C(O)Cc1cccc(CCNC(=O)C2Cc3ccccc3N2S(=O)(=O)c2ccc(-c3ccccc3C(F)(F)F)cc2)c1` (configuration not stated), the melting point is 78 °C.
To `CCOc1cncc(N2CCN3CCCC3C2)n1` (configuration not stated) belongs 101 to 102 °C; to `CNc1c(S(=O)(=O)C(F)(F)F)c(-c2ncon2)nn1-c1c(Cl)cc(C(F)(F)F)cc1Cl`, 156 to 158 °C.
For `Cc1noc(NC(=O)N2CCN(c3ccnc(-c4ccc(F)cc4F)n3)CC2)c1C` the value was 207 to 208 °C; for `CC(=O)Nc1ccccc1CS(=O)c1nccn1-c1ccccn1` (configuration not stated), 172 to 173 °C; for `CC12CCC(F)CC1=CCC1C2CCC2(C)C(O)CCC12` (configuration not stated), 165 to 166 °C.
For `CCCSc1cn(C)cc(-c2ccc(Cl)c(C(F)(F)F)c2)c1=O` the value was 128 to 130 °C; for `Cc1cccc2[nH]c(=O)n(CCCN3CC=C(c4cccc(Cl)c4)CC3)c(=O)c12`, 180 to 183 °C.
With `Nc1nnc(C(F)(F)C(Cl)Cl)o1`, the melting point was 171 °C.
To `CC1(C)CC2(CC(C)(C)N1c1nc(Cl)nc(Cl)n1)OCCO2` belongs 169 to 172 °C.
Regarding `O=C1NC(=O)C(Cc2ccc(C(=O)COc3ccccc3)cc2)S1` (configuration not stated), the melting point was in the range of 170 to 174 °C.
To `COc1ccc(Cl)cc1C(=O)NCCc1ccc([N+](=O)[O-])cc1` belongs 159 to 160 °C; to `CC(C)(C)c1cc(CCc2ccccc2NC(=O)NC2CCN(Cc3cccnc3)CC2)cc(C(C)(C)C)c1O`, 156 to 158 °C; to `Cc1ccc(OCc2ccccc2)cc1NCc1ccccc1`, 66 to 67 °C.

(Values after a melting point compilation (Tetko et al.; mined from patent text by program, amines drawn as free bases though some values may be those of a salt).)
